# Laboratory results from patent publication US20200214296A1, “MICROBICIDAL COMPOSITION” (DDP Specialty Electronic Materials US, Inc., priority 2017, published 2020).
# Experiments:
# [1] = test system: Pseudomonas aeruginosa & E. coli mix; experiment: Synergy in the planktonic phase, biocide challenge with resazurin regrowth readout; type: cell-based, Pseudomonas aeruginosa (DSM: 50071) and E. coli (DSM: 1576); conditions: P. aeruginosa/E. coli, after 48 hours, phosphate buffer pH 7.3, used alone
# Description: Pseudomonas aeruginosa (DSM: 50071) and E. coli (DSM: 1576) cultures were separately prepared from glycerol stocks; first they were streak plated and validated with a microscope. Single colonies were picked and shake flasks were inoculated and left overnight at 37° C. (TSB medium) to produce the initial inoculum. The challenge block (a 96 wells plate) was prepared using phosphate buffer at pH 7.3, (0.0027M potassium chloride, 0.137 M sodium chloride). The Biocide challenging was done at 30° C. Inoculation took place at the start of the experiments and after 48 hours a re-inoculation was done. Challenging was monitored up to 7 days in total. In Table 1, the concentrations used for the synergy experiments are listed. Each experiment was done in triplicate. […] The recovery plates were subsequently read (checked for microbial growth) at 24 and 48 hours after addition of the culture. Plate reading took place twice for each time point, to look at potential changes. Reading took place utilizing separate 96 wells plates pre filled with fresh media. […] This was done in triplicate for each point (the triplicate is already present in the biocide block viz. each point is truly determined in triplicate). […] Ranking was done per average value of three data points determined per experiment. (Recorded in log regrowth). […]
# [2] = test system: Thermus thermophilus; experiment: as above; type: cell-based, Thermus thermophilus (DSM: 579)
# Description: The inoculum prepared added between to 1*10^8 to 1*10^9 total cells/ml (in each well). At several timepoints 20 microliter aliquots of each treatment (well) were added to 96 well plates with TSB+Resazurin. These 96 well plates were filled with 'recovery' media (TSB 30 grams/liter). One of such plates was prepared for each column of the assay block. 180 μl recovery media was added to each well of a 96 well plate, except for column 1 of the recovery plate. This column was filled with 180 μl of one column of the assay block. The last three columns on the recovery plate were not pipetted. These columns represented the no template control for verifying proper plate set up and data reliability. […] The recovery plates were subsequently read (checked for microbial growth) at 24 and 48 hours after addition of the culture. Plate reading took place twice for each time point, to look at potential changes. Reading took place utilizing separate 96 wells plates pre filled with fresh media. […] This was done in triplicate for each point (the triplicate is already present in the biocide block viz. each point is truly determined in triplicate). […] Ranking was done per average value of three data points determined per experiment. (Recorded in log regrowth). […]
# [3] = test system: Pseudomonas aeruginosa biofilm; experiment: Biofilm dissipation synergy on MBEC plate pegs; type: cell-based; conditions: P. aeruginosa biofilm, 24 hour contact time, 5 day regrowth; pass = total eradication of the biofilm
# Description: One measure of synergism is the industrially accepted method described by Kull, […]. and Mayer, R. L., in Applied Microbiology 9:538-541 (1961), using the ratio determined by the formula: Qa/QA+Qb/QB=Synergy Index (“SI”) […] A Pseudomonas aeruginosa culture was prepared from glycerol stocks. First, the culture was streak plated. Single colonies were selected and shake flasks were inoculated and left overnight at 37° C. (TSB medium). The culture was diluted in phosphate buffer pH 7.3 1:1000000 prior to set up the biofilm plate Biofilm was developed overnight on P&G MBEC plates. The 96 well plates were covered with the lid holding the pegs partially submerged in the growth media. Biofilm was developed on the pegs leading to a total cell amount of 7*10^10 cells per peg. The top plates (with the pegs) were then subsequently washed and then placed into a 96 well challenge plate with the biocidal components in the given amounts. […] The contact time of the biofilms with the microbicidal mix was 24 hours. After the challenging, the biofilms were gently washed, sonicated from the pegs into recovery media (TSB 30 g/l, with resazurin, 0.01%), from these wells directly after sonication 10× dilution series were made on separate plates. These were left to recover for 3 to 5 days at 30° C. […] It could then be back-calculated how many cells remained after challenging of the biofilm with biocides. […]
structure (smiles),measurement,setting,value
"O=CC=O [Glyoxal, glyoxal]",Glyoxal standalone 48 h pass,[1],≥2000 ppm
same,Glyoxal standalone 48 h pass,"[2]; T. thermophilus, planktonic, after 48 hours, 60° C., standard ocean matrix salinity 2%, used alone",40 ppm
same,Sensitivity of Thermus thermophilus vs. Pseudomonas aeruginosa and E. coli,"[2]; comparison in words, footnote of Table 2",more sensitive
same,Glyoxal (standalone pass),[3],1280 ppm
